The subject of series [1] is SK-OV-3. As to the kind of experiment: Induction of apoptosis in human SK-OV-3 cells assessed as early apoptotic cells at 10 umol/L incubated for 24 hrs by Annexin V-FITC/PI staining based flow cytometric analysis (reference value: 4.66 %). The format is functional. Particulars: dose 10 µmol/L, at 10 µM. Background: Flow cytometry measures light scatter and fluorescence of single cells or particles in a stream.

Series [2] deals with HeLa. As to the kind of experiment: Antiproliferative activity against human HeLa cells assessed as inhibition of cell growth incubated for 72 hrs by MTT assay. The format is functional, cell-based. In general terms: Tetrazolium dyes change colour on reduction, which living cells bring about.
Series [3] relates to SK-OV-3. As to the kind of experiment: Induction of apoptosis in human SK-OV-3 cells assessed as necrotic cells at 10 umol/L incubated for 24 hrs by Annexin V-FITC/PI staining based flow cytometric analysis (reference value: 0.00 %). To be noted: dose 10 µmol/L, at 10 µM. Type of series: functional.
The subject of series [4] is SK-OV-3. As to the kind of experiment: Induction of apoptosis in human SK-OV-3 cells assessed as early apoptotic cells at 25 umol/L incubated for 24 hrs by Annexin V-FITC/PI staining based flow cytometric analysis (reference value: 4.66 %). Type of series: functional. To be noted: dose 25 µmol/L, at 25 µM.
Series [5] has as its system SK-OV-3. As to the kind of experiment: Induction of apoptosis in human SK-OV-3 cells assessed as early apoptotic cells at 5 umol/L incubated for 24 hrs by Annexin V-FITC/PI staining based flow cytometric analysis (reference value: 4.66 %). Type of series: functional. To be noted: dose 5 µmol/L, at 5 µM.
For series [6], the system named is SK-OV-3. As to the kind of experiment: Induction of apoptosis in human SK-OV-3 cells assessed as viable cells at 5 umol/L incubated for 24 hrs by Annexin V-FITC/PI staining based flow cytometric analysis (reference value: 89.83 %). The format is functional. Particulars: SK-OV-3, 24 h, dose 5 µmol/L, read-out: Activity.
Series [7] concerns SK-OV-3. As to the kind of experiment: Induction of apoptosis in human SK-OV-3 cells assessed as viable cells at 10 umol/L incubated for 24 hrs by Annexin V-FITC/PI staining based flow cytometric analysis (reference value: 89.83 %). Particulars: SK-OV-3, 24 h, dose 10 µmol/L, read-out: Activity. Type of series: functional.
Series [8] relates to SK-OV-3. As to the kind of experiment: Induction of apoptosis in human SK-OV-3 cells assessed as viable cells at 25 umol/L incubated for 24 hrs by Annexin V-FITC/PI staining based flow cytometric analysis (reference value: 89.83 %). Type of series: functional. To be noted: SK-OV-3, 24 h, dose 25 µmol/L, read-out: Activity.
Series [9] has as its system SK-OV-3. As to the kind of experiment: Induction of apoptosis in human SK-OV-3 cells assessed as late apoptotic cells at 15 umol/L incubated for 24 hrs by Annexin V-FITC/PI staining based flow cytometric analysis (reference value: 5.51 %). The format is functional. Particulars: dose 15 µmol/L, at 15 µM.
Series [10] concerns SK-OV-3. As to the kind of experiment: Induction of apoptosis in human SK-OV-3 cells assessed as necrotic cells at 15 umol/L incubated for 24 hrs by Annexin V-FITC/PI staining based flow cytometric analysis (reference value: 0.00 %). The format is functional. To be noted: dose 15 µmol/L, at 15 µM.
Series [11] is described as follows: Cytotoxicity against HEK293T cells assessed as inhibition of cell growth incubated for 72 hrs by MTT assay. The format is toxicity, cell-based, HEK-293T. Particulars: human.
In series [12] the test system is SK-OV-3. As to the kind of experiment: Induction of apoptosis in human SK-OV-3 cells assessed as necrotic cells at 20 umol/L incubated for 24 hrs by Annexin V-FITC/PI staining based flow cytometric analysis (reference value: 0.00 %). The format is functional. To be noted: dose 20 µmol/L, at 20 µM.
Another series relates to MCF7. As to the kind of experiment: Antiproliferative activity against human MCF7 cells assessed as inhibition of cell growth incubated for 72 hrs by MTT assay. Type of series: functional, cell-based. Particulars: MCF7, 72 h.
In the next series the test system is T47D. As to the kind of experiment: Antiproliferative activity against human T47D cells assessed as inhibition of cell growth incubated for 72 hrs by MTT assay. Type of series: functional, cell-based.
Series [13] concerns SK-OV-3. As to the kind of experiment: Induction of apoptosis in human SK-OV-3 cells assessed as necrotic cells at 5 umol/L incubated for 24 hrs by Annexin V-FITC/PI staining based flow cytometric analysis (reference value: 0.00 %). Particulars: dose 5 µmol/L, at 5 µM. The format is functional.
Series [14] concerns SK-OV-3. As to the kind of experiment: Induction of apoptosis in human SK-OV-3 cells assessed as early apoptotic cells at 20 umol/L incubated for 24 hrs by Annexin V-FITC/PI staining based flow cytometric analysis (reference value: 4.66 %). Type of series: functional. To be noted: dose 20 µmol/L, at 20 µM.
Series [15] relates to SK-OV-3. As to the kind of experiment: Induction of apoptosis in human SK-OV-3 cells assessed as late apoptotic cells at 20 umol/L incubated for 24 hrs by Annexin V-FITC/PI staining based flow cytometric analysis (reference value: 5.51 %). The format is functional. To be noted: dose 20 µmol/L, at 20 µM.
The test system of series [16] is SK-OV-3. As to the kind of experiment: Induction of apoptosis in human SK-OV-3 cells assessed as late apoptotic cells at 25 umol/L incubated for 24 hrs by Annexin V-FITC/PI staining based flow cytometric analysis (reference value: 5.51 %). The format is functional. Particulars: dose 25 µmol/L, at 25 µM.
In series [17] the test system is SK-OV-3. As to the kind of experiment: Antiproliferative activity against human SK-OV-3 cells assessed as inhibition of cell growth incubated for 72 hrs by MTT assay. Type of series: functional, cell-based. Particulars: SK-OV-3, 72 h.
Series [18] relates to SK-OV-3. As to the kind of experiment: Induction of apoptosis in human SK-OV-3 cells assessed as viable cells at 15 umol/L incubated for 24 hrs by Annexin V-FITC/PI staining based flow cytometric analysis (reference value: 89.83 %). The format is functional. Particulars: SK-OV-3, 24 h, dose 15 µmol/L, read-out: Activity.
In series [19] the test system is SK-OV-3. As to the kind of experiment: Induction of apoptosis in human SK-OV-3 cells assessed as necrotic cells at 25 umol/L incubated for 24 hrs by Annexin V-FITC/PI staining based flow cytometric analysis (reference value: 0.00 %). The format is functional. Particulars: dose 25 µmol/L, at 25 µM.
The subject of the next series is HepG2. As to the kind of experiment: Antiproliferative activity against human HepG2 cells assessed as inhibition of cell growth incubated for 72 hrs by MTT assay. The format is functional, cell-based. To be noted: HepG2, 72 h.
For series [20], the system named is SK-OV-3. As to the kind of experiment: Induction of apoptosis in human SK-OV-3 cells assessed as early apoptotic cells at 15 umol/L incubated for 24 hrs by Annexin V-FITC/PI staining based flow cytometric analysis (reference value: 4.66 %). Type of series: functional. Particulars: dose 15 µmol/L, at 15 µM.
Series [21] has as its system SK-OV-3. As to the kind of experiment: Induction of apoptosis in human SK-OV-3 cells assessed as late apoptotic cells at 5 umol/L incubated for 24 hrs by Annexin V-FITC/PI staining based flow cytometric analysis (reference value: 5.51 %). Type of series: functional. To be noted: dose 5 µmol/L, at 5 µM.
In series [22] the test system is SK-OV-3. As to the kind of experiment: Induction of apoptosis in human SK-OV-3 cells assessed as viable cells at 20 umol/L incubated for 24 hrs by Annexin V-FITC/PI staining based flow cytometric analysis (reference value: 89.83 %). The format is functional. Particulars: SK-OV-3, 24 h, dose 20 µmol/L, read-out: Activity.
Series [23] concerns SK-OV-3. As to the kind of experiment: Induction of apoptosis in human SK-OV-3 cells assessed as late apoptotic cells at 10 umol/L incubated for 24 hrs by Annexin V-FITC/PI staining based flow cytometric analysis (reference value: 5.51 %). Type of series: functional. Particulars: dose 10 µmol/L, at 10 µM.
Series [24] has as its system HeLa. As to the kind of experiment: Antitumor activity against human HeLa cells xenografted in wildtype zebrafish AB yolk sac assessed as tumor fluorescence intensity at 15 uM measured 48 hrs post injection by fluorescence based assay. The format is functional. On the technique in general: Xenograft models place foreign cells or tissue in a host animal.
Series [25] concerns HeLa. As to the kind of experiment: Antitumor activity against human HeLa cells xenografted in wildtype zebrafish AB yolk sac assessed as tumor fluorescence intensity at 15 uM measured immediately by fluorescence based assay. Type of series: functional.
Series [26] in a line: Selectivity index, ratio of IC50 for cytotoxicity against HEK293T cells to IC50 for antiproliferative activity against human HeLa cells. The format is toxicity, cell-based. To be noted: HEK293T cells versus HeLa cells, read-out: Ratio IC50.
Series [27] concerns HeLa. As to the kind of experiment: Antitumor activity against human HeLa cells xenografted in wildtype zebrafish AB yolk sac assessed as tumor fluorescence area at 15 uM measured 48 hrs post injection by fluorescence based assay. Type of series: functional.
The test system of series [28] is HeLa. As to the kind of experiment: Antitumor activity against human HeLa cells xenografted in wildtype zebrafish AB yolk sac assessed as tumor fluorescence area at 15 uM measured immediately by fluorescence based assay. The format is functional.

Where only a bound is given, the exact number is not on record here.

Broadly, the IC50 is the concentration that inhibits the measured activity by half. On to `C[C@]12CC[C@@H]3c4cc(NC(=O)CCCCCC[Se]C#N)c(O)cc4CC[C@H]3[C@@H]1CCC2=O`, for which the Activity in the series on SK-OV-3 [1] is given as 32.38%; in the series with SK-OV-3 [3], 0.45%; in the series on SK-OV-3 [4], 42.27%; in the series on SK-OV-3 [5] it was 27.75%; in the series with SK-OV-3 [9] it was 51.6%; in the series on SK-OV-3 [10] it was 0.2%. The Activity with SK-OV-3 [12] is 0.17%; with SK-OV-3 [13] it was 0.04%; with SK-OV-3 [14], 29.04%; in the series with SK-OV-3 [15] it was 58.26%; with SK-OV-3 [16], 50.48%; in the series on SK-OV-3 [19], 0.33%. Besides, the Activity in the series with SK-OV-3 [20] is 31.88%; in the series on SK-OV-3 [21] it was 28.34%; with SK-OV-3 [23] it was 36.97%. The concentration for half-maximal inhibition (IC50) with HeLa [2] was determined as 10.2 µM; in the series on MCF7, 10.1 µM; in the series with T47D, 24.9 µM; in the series with SK-OV-3 [17], 8.2 µM; in the series on HepG2, 10.1 µM. Further, in the series with SK-OV-3 [6], the viability at 5 µM was determined as 43.9%. The viability at 10 µM in the series on SK-OV-3 [7] came to 30.2%. Besides, the viability at 25 µM in the series with SK-OV-3 [8] was 6.93%. The IC50 at 72 h in series [11] turned out to be 14.4 µM. Further, the viability at 15 µM with SK-OV-3 [18] stood at 16.3%. Also, the viability at 20 µM in the series on SK-OV-3 [22] stood at 12.5%.

`C[C@]12CC[C@@H]3c4ccc(OCCCCC[Se]C#N)cc4CC[C@H]3[C@@H]1CCC2=O`: the IC50 in the series with HeLa [2] is 9.5 µM; in the series on MCF7 it was 38.3 µM; with T47D, 68.2 µM; with SK-OV-3 [17], 31 µM; in the series with HepG2 it was more than 100 µM. In addition, the Flu intensity with HeLa [24] came out at 5328.6; in the series with HeLa [25], 43169.53. Further, the selectivity ratio in [26] was 8.1. For the same compound, in series [11], the IC50 at 72 h amounted to 77.2 µM. Besides, the Activity is 12391.83 pixel with HeLa [27] and 79354.17 pixel in the series with HeLa [28].

Values taken from ChEMBL document CHEMBL5150066, “Synthesis of estrone selenocyanate Compounds, anti-tumor activity evaluation and Structure-activity relationship analysis” (Bioorg Med Chem, 2022).
